The results in this text go back to US10696672B2 (Pliant Therapeutics, Inc., priority 2016, dated 2020).

Each structure is given as a SMILES string.

The term IC50 denotes the concentration that inhibits the measured activity by half.

The target of this experiment is recombinant human integrin αvβ6 (Homo sapiens (Human), UniProt P06756+P18564). Briefly: Solid phase integrin αvβ6 binding assay. The following applies: plate-coated integrin; recombinant TGFβ1 LAP 0.67 ug/ml as ligand; 2 hours at 25° C.; read-out: αvβ6 Inhibition IC50 (nM) - range. The protocol:
Example B1—Solid Phase Integrin αvβ6 Binding Assay
Microplates were coated with recombinant human integrin αvβ6 (2 ug/ml) in PBS (100 ul/well 25° C., overnight). The coating solution was removed, washed with wash buffer (0.05% Tween 20; 0.5 mM MnCl2; in 1×TBS). Plate was blocked with 200 ul/well of Block Buffer (1% BSA; 5% sucrose; 0.5 mM MnCl2; in 1×TBS) at 37° C. for 2 h. Dilutions of testing compounds and recombinant TGFβ1 LAP (0.67 ug/ml) in binding buffer (0.05% BSA; 2.5% sucrose; 0.5 mM MnCl2; in 1×TBS) were added. The plate was incubated for 2 hours at 25° C., washed, and incubated for 1 hour with Biotin-Anti-hLAP. Bound antibody was detected by peroxidase-conjugated streptavidin. The IC50 values for testing compounds were calculated by a four-parameter logistic regression.
The compounds tested were compound samples prepared according to procedures described in the Synthetic Examples section, with the stereochemical purity as indicated in the Examples indicated.

Chain of recombinant human integrin αvβ6 (P06756 31-992): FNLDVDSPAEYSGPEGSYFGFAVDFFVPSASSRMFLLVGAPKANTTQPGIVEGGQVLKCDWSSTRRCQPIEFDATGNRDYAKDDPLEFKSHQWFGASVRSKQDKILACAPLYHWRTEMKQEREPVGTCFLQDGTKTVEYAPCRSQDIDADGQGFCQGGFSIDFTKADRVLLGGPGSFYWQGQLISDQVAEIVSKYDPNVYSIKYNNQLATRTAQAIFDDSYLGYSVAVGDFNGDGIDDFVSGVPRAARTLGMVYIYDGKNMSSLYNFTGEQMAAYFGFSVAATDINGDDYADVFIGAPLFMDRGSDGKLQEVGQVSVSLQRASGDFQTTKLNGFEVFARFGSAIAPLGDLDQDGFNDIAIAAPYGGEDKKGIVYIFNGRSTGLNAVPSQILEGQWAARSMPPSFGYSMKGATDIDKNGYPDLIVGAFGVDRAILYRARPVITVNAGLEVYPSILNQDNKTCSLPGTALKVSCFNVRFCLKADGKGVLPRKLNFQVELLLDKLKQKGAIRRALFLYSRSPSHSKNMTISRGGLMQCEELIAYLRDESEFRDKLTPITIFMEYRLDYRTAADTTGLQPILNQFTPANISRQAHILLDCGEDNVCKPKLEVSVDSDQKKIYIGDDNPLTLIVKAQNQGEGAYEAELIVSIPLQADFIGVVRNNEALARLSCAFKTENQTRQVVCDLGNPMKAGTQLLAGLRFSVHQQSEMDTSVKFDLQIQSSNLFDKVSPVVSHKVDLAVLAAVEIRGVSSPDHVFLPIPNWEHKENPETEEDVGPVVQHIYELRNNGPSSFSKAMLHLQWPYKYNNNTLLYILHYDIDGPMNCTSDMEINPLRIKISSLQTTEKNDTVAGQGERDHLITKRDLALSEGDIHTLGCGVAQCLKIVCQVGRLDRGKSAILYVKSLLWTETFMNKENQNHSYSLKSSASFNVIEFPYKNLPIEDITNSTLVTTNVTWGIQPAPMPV
Chain of recombinant human integrin αvβ6 (P18564 22-707): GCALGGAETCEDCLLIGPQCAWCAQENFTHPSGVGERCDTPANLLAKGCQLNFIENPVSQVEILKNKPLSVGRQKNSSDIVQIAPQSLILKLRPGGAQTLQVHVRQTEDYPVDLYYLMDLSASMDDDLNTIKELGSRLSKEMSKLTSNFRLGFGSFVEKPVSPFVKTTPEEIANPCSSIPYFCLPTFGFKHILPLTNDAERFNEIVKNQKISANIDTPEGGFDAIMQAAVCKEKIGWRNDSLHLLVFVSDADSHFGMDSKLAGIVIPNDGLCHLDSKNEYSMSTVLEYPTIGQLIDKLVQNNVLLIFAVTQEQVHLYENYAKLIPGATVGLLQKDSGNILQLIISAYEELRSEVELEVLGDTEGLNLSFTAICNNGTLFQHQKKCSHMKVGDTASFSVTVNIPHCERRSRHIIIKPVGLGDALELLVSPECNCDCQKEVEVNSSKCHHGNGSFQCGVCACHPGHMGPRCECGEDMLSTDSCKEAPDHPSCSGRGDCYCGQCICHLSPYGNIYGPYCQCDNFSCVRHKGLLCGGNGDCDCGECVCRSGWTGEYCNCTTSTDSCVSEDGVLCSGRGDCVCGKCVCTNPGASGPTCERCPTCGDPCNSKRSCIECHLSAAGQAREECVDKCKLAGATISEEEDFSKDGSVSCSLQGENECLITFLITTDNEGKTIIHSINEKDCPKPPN

As for `O=C(NC(CCN1CC[C@@H](CCc2ccc3c(n2)NCCC3)C1)C(=O)O)c1ccccc1` (stereo partly shown) [3a and 3c], the IC50 is < 50 nM. In the case of `Cc1cccc(C)c1C(=O)NC(CCN1CC[C@@H](CCc2ccc3c(n2)NCCC3)C1)C(=O)O` (stereo partly shown) [4a and 4c], the IC50 is < 50 nM. Under `N#Cc1cc(Cl)c(C(=O)NC(CCN2CC[C@@H](CCc3ccc4c(n3)NCCC4)C2)C(=O)O)c(Cl)c1` (stereo partly shown) [7a and 7c] stands < 50 nM. Consider `Cc1cc(C)n(-c2cccc(C(=O)NC(CCN3CC[C@@H](CCc4ccc5c(n4)NCCC5)C3)C(=O)O)c2)n1` (stereo partly shown) [13a and 13c], for which the IC50 was < 50 nM. Turning to `O=C(NC(CCN1CC[C@@H](CCc2ccc3c(n2)NCCC3)C1)C(=O)O)c1c(Cl)cncc1Cl` (stereo partly shown) [20a and 20c], the IC50 is < 50 nM.

Take `O=C(NC(CCN1CC[C@@H](CCc2ccc3c(n2)NCCC3)C1)C(=O)O)C1CCN(C2CC2)CC1` (stereo partly shown) [23a and 23c]: the concentration for half-maximal inhibition (IC50) lay in the range of 50 to 250 nM. Under `O=C(NC(CCN1CC[C@@H](CCc2ccc3c(n2)NCCC3)C1)C(=O)O)c1ccc2ocnc2c1` (stereo partly shown) [31a and 31c] stands < 50 nM; under `CC(C)(C)C(=O)N[C@H](CCN1CC[C@@H](CCc2ccc3c(n2)NCCC3)C1)C(=O)O` [Compound 1c, (R)-2-pivalamido-4-((R)-3-(2-(5,6,7,8-tetrahydro-1,8-naphthyridin-2-yl)ethyl)pyrrolidin-1-yl)butanoic acid], < 50 nM; under `CC(C)(C)OC(=O)N[C@@H](CCN1CC[C@@H](CCc2ccc3c(n2)NCCC3)C1)C(=O)O` [Compound 2a, (S)-2-((tert-butoxycarbonyl)amino)-4-((R)-3-(2-(5,6,7,8-tetrahydro-1,8-naphthyridin-2-yl)ethyl)pyrrolidin-1-yl)butanoic acid], < 50 nM. The figure for `O=C(N[C@@H](CCN1CC[C@@H](CCc2ccc3c(n2)NCCC3)C1)C(=O)O)c1cccc(F)c1Cl` [Compound 5a, (S)-2-(2-chloro-3-fluorobenzamido)-4-((R)-3-(2-(5,6,7,8-tetrahydro-1,8-naphthyridin-2-yl)ethyl)pyrrolidin-1-yl)butanoic acid] is < 50 nM. In the case of `O=C(N[C@@H](CCN1CC[C@@H](CCc2ccc3c(n2)NCCC3)C1)C(=O)O)c1c(Cl)cccc1Cl` [Compound 6a, (S)-2-(2,6-dichlorobenzamido)-4-((R)-3-(2-(5,6,7,8-tetrahydro-1,8-naphthyridin-2-yl)ethyl)pyrrolidin-1-yl)butanoic acid], the IC50 is < 50 nM.

As for `O=C(N[C@H](CCN1CC[C@@H](CCc2ccc3c(n2)NCCC3)C1)C(=O)O)c1c(Cl)cccc1Cl` [Compound 6c, (R)-2-(2,6-dichlorobenzamido)-4-((R)-3-(2-(5,6,7,8-tetrahydro-1,8-naphthyridin-2-yl)ethyl)pyrrolidin-1-yl)butanoic acid], the IC50 fell in the range of 250 to 1000 nM. The figure for `O=C(N[C@@H](CCN1CC[C@@H](CCc2ccc3c(n2)NCCC3)C1)C(=O)O)c1ccccc1C(F)(F)F` [Compound 8a, (S)-4-((R)-3-(2-(5,6,7,8-tetrahydro-1,8-naphthyridin-2-yl)ethyl)pyrrolidin-1-yl)-2-(2-(trifluoromethyl)benzamido)butanoic acid] is < 50 nM; for `O=C(N[C@@H](CCN1CC[C@@H](CCc2ccc3c(n2)NCCC3)C1)C(=O)O)c1cccc(C(F)(F)F)c1` [Compound 9a, (S)-4-((R)-3-(2-(5,6,7,8-tetrahydro-1,8-naphthyridin-2-yl)ethyl)pyrrolidin-1-yl)-2-(3-(trifluoromethyl)benzamido)butanoic acid] it is < 50 nM. Consider `O=C(N[C@@H](CCN1CC[C@@H](CCc2ccc3c(n2)NCCC3)C1)C(=O)O)c1ccc(C(F)(F)F)cc1` [Compound 10a, (S)-4-((R)-3-(2-(5,6,7,8-tetrahydro-1,8-naphthyridin-2-yl)ethyl)pyrrolidin-1-yl)-2-(4-(trifluoromethyl)benzamido)butanoic acid], for which the IC50 is < 50 nM. Under `O=C(N[C@@H](CCN1CC[C@@H](CCc2ccc3c(n2)NCCC3)C1)C(=O)O)c1cc(OC(F)(F)F)ccc1Cl` [Compound 11a] stands < 50 nM; under `Cc1cc(C)n(-c2cccc(C(=O)N[C@@H](CCN3CCC(CCc4ccc5c(n4)NCCC5)CC3)C(=O)O)c2)n1` [Compound 12a, (S)-2-(3-(3,5-dimethyl-1H-pyrazol-1-yl)benzamido)-4-(4-(2-(5,6,7,8-tetrahydro-1,8-naphthyridin-2-yl)ethyl)piperidin-1-yl)butanoic acid], > 1000 nM. On to `Cc1cc(C)n(-c2cccc(C(=O)N[C@@H](CCN3CC[C@@H](CCc4ccc5c(n4)NCCC5)C3)C(=O)O)c2)n1` [Compound 13a, (S)-2-(3-(3,5-dimethyl-1H-pyrazol-1-yl)benzamido)-4-((R)-3-(2-(5,6,7,8-tetrahydro-1,8-naphthyridin-2-yl)ethyl)pyrrolidin-1-yl)butanoic acid], for which the IC50 is < 50 nM. Under `Cc1cc(C)n(-c2cccc(C(=O)N[C@H](CCN3CC[C@@H](CCc4ccc5c(n4)NCCC5)C3)C(=O)O)c2)n1` [Compound 13c, (R)-2-(3-(3,5-dimethyl-1H-pyrazol-1-yl)benzamido)-4-((R)-3-(2-(5,6,7,8-tetrahydro-1,8-naphthyridin-2-yl)ethyl)pyrrolidin-1-yl)butanoic acid] stands < 50 nM; under `O=C(N[C@@H](CCN1CC[C@@H](CCc2ccc3c(n2)NCCC3)C1)C(=O)O)c1ccccc1N1CCOCC1` [Compound 14a, (S)-2-(2-morpholinobenzamido)-4-((R)-3-(2-(5,6,7,8-tetrahydro-1,8-naphthyridin-2-yl)ethyl)pyrrolidin-1-yl)butanoic acid], 50 to 250 nM. For the compound `O=C(N[C@@H](CCN1CC[C@@H](CCc2ccc3c(n2)NCCC3)C1)C(=O)O)c1cccc(N2CCOCC2)c1` [Compound 15a, (S)-2-(3-morpholinobenzamido)-4-((R)-3-(2-(5,6,7,8-tetrahydro-1,8-naphthyridin-2-yl)ethyl)pyrrolidin-1-yl)butanoic acid], the IC50 is < 50 nM. Under `O=C(N[C@@H](CCN1CC[C@@H](CCc2ccc3c(n2)NCCC3)C1)C(=O)O)c1ccc(N2CCOCC2)cc1` [Compound 16a, (S)-2-(4-morpholinobenzamido)-4-((R)-3-(2-(5,6,7,8-tetrahydro-1,8-naphthyridin-2-yl)ethyl)pyrrolidin-1-yl)butanoic acid] stands > 1000 nM; under `O=C(N[C@@H](CCN1CC[C@@H](CCc2ccc3c(n2)NCCC3)C1)C(=O)O)c1ccccn1` [Compound 17a, (S)-2-(picolinamido)-4-((R)-3-(2-(5,6,7,8-tetrahydro-1,8-naphthyridin-2-yl)ethyl)pyrrolidin-1-yl)butanoic acid], 50 to 250 nM. Consider `O=C(N[C@@H](CCN1CC[C@@H](CCc2ccc3c(n2)NCCC3)C1)C(=O)O)c1ccncc1` [Compound 18a, (S)-2-(isonicotinamido)-4-((R)-3-(2-(5,6,7,8-tetrahydro-1,8-naphthyridin-2-yl)ethyl)pyrrolidin-1-yl)butanoic acid], for which the IC50 is < 50 nM. On to `O=C(N[C@@H](CCN1CC[C@@H](CCc2ccc3c(n2)NCCC3)C1)C(=O)O)c1cccnc1` [Compound 19a, (S)-2-(nicotinamido)-4-((R)-3-(2-(5,6,7,8-tetrahydro-1,8-naphthyridin-2-yl)ethyl)pyrrolidin-1-yl)butanoic acid], for which the IC50 lay in the range of 50 to 250 nM. The figure for `O=C(N[C@@H](CCN1CC[C@@H](CCc2ccc3c(n2)NCCC3)C1)C(=O)O)C1CCC(F)(F)CC1` [Compound 21a, (S)-2-(4,4-difluorocyclohexane-1-carboxamido)-4-((R)-3-(2-(5,6,7,8-tetrahydro-1,8-naphthyridin-2-yl)ethyl)pyrrolidin-1-yl)butanoic acid] is < 50 nM; for `O=C(N[C@H](CCN1CC[C@@H](CCc2ccc3c(n2)NCCC3)C1)C(=O)O)C1CCC(F)(F)CC1` [Compound 21c, (R)-2-(4,4-difluorocyclohexane-1-carboxamido)-4-((R)-3-(2-(5,6,7,8-tetrahydro-1,8-naphthyridin-2-yl)ethyl)pyrrolidin-1-yl)butanoic acid] it is < 50 nM; for `CC1(C(=O)N[C@@H](CCN2CC[C@@H](CCc3ccc4c(n3)NCCC4)C2)C(=O)O)CCOCC1` [Compound 22a, (S)-2-(4-methyltetrahydro-2H-pyran-4-carboxamido)-4-((R)-3-(2-(5,6,7,8-tetrahydro-1,8-naphthyridin-2-yl)ethyl)pyrrolidin-1-yl)butanoic acid] it is 50 to 250 nM.

Turning to `Cn1ncc2ccc(C(=O)N[C@@H](CCN3CC[C@@H](CCc4ccc5c(n4)NCCC5)C3)C(=O)O)cc21` [Compound 24a, (S)-2-(1-methyl-1H-indazole-6-carboxamido)-4-((R)-3-(2-(5,6,7,8-tetrahydro-1,8-naphthyridin-2-yl)ethyl)pyrrolidin-1-yl)butanoic acid], the IC50 is < 50 nM. Regarding `Cn1ncc2cc(C(=O)N[C@@H](CCN3CC[C@@H](CCc4ccc5c(n4)NCCC5)C3)C(=O)O)ccc21` [Compound 25a, (S)-2-(1-methyl-1H-indazole-5-carboxamido)-4-((R)-3-(2-(5,6,7,8-tetrahydro-1,8-naphthyridin-2-yl)ethyl)pyrrolidin-1-yl)butanoic acid], the IC50 lay in the range of 50 to 250 nM. Under `O=C(N[C@@H](CCN1CC[C@@H](CCc2ccc3c(n2)NCCC3)C1)C(=O)O)c1cccc2cn[nH]c12` [Compound 26a, (S)-2-(1H-indazole-7-carboxamido)-4-((R)-3-(2-(5,6,7,8-tetrahydro-1,8-naphthyridin-2-yl)ethyl)pyrrolidin-1-yl)butanoic acid] stands < 50 nM.
